Data as given in patent US20210047290A1, “SPIRO COMPOUND AS INDOLEAMINE-2,3-DIOXYGENASE INHIBITOR” (SHANGHAI INSTITUTE OF ORGANIC CHEMISTRY, CHINESE ACADEMY OF …, priority 2018, published 2021).

Columns and labels:
IDO in Hela cells = biological target: T1, IDO in Hela cells (Homo sapiens, UniProt P14902); assay: Test of cellular activity (kynurenine formation in interferon γ stimulated Hela cells); type: cell-based; conditions: head prints IPS cells, method: Hela cells, 48 h incubation, read at 480 nm
T1 construct: endogenous in cells; host or cells: HeLa cells stimulated with human interferon γ
T1 sequence (P14902 whole entry): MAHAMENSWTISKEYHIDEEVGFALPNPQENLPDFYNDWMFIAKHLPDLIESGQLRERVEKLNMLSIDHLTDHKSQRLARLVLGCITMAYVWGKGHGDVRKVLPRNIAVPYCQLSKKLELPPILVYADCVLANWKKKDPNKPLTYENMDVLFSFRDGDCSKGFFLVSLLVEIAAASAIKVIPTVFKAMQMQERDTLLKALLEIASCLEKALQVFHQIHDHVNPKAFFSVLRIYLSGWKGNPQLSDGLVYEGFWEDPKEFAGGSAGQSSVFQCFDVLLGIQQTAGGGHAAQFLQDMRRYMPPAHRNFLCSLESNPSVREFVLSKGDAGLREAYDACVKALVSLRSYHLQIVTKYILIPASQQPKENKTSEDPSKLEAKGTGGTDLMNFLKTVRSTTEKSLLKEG
Description: (3) Test Method of Cellular Activity
Hela cells (80 μL) was inoculated on a 96-well plate (5×10^3 for each well) to grow overnight. After the compound was diluted the next day, 1 μL of diluent and 100 μL of culture medium which contains human interferon γ (final concentration: 50 ng/m) were added into the 96-well plate to make the final volume reach […]. After incubating for 48 h, 80 μL of supernate was transferred from each well to a new […]. 10 μL 6.1N trichloroacetic acid was added into each well for mixing and incubation at 50° C. for 30 min, and […] N formyl-kynurenin into kynurenine. The reaction mixture was centrifuged at 2,500 rpm for 10 min, 70 μL of supernatant of each well was transferred to a new 96-well plate and mixed with 100 μL of 2% (w/v) dimethylaminobenzaldehyde acetic acid solution. After placing for 5-10 min, measurement was carried out at 480 nm with the SPECTRAmax i13 reader.

IDO enzyme = biological target: T2, IDO enzyme (Homo sapiens, UniProt P14902); assay: IDO enzyme inhibitory activity test; type: biochemical; conditions: recombinant IDO, D-Trp substrate, reading at 321 nm for 40 min
T2 construct: made in house; host or cells: E. coli BL21 (pET28a-IDO plasmid)
T2 sequence (P14902 whole entry): as above
Description: (1) Induced Expression and Purification Method of IDO Protein
Firstly, DO gene was amplified with PCR, and the amplified PCR product was recycled. Digestion (2 h under 37° C.), gel running and recycling were carried out on the pET28a plasmid (purchased from Shanghai Baomanbio Co., Ltd.) and IDO gel with two restriction enzymes (EcoR I and Xho I). T4 ligase was connected with the product overnight, added into DH5α competence, placed on the ice for 30 min and subjected to thermal shock at 42° C. for 90 s.
BL21 which contained pET28a-IDO plasmid was shaken vigorously at 37° C. till OD600 was 0.6-0.8, added into hemin (final concentration: 40 μM) and 0.5 mM IPTG (isopropyl-3-D-IPTG) and induced under 16° C. for 20 h; after induction, thallus were collected centrifugally at 4° C. and 6,000 rpm, washed with 50 mM PBS (pH 7.5) and collected again centrifugally.
The collected thallus were suspended again with buffer solution (50 mM PBS pH 7.5). An appropriate amount of 100×PMSF was added. The thallus were disrupted with cell disruption instrument (1,400 bar) at 4° C. for three times. The split bacteria were centrifuged at 18,000×g for 45 min. The sediment was removed but supernatant was retained and filtered with a 0.45 μm film at 4° C.; the nickel column was balanced with lysis buffer (50 mM PBS pH7.5) by 3 column volumes.
The supernatant was loaded on the nickel column and washed with wash solution (50 mM PBS pH7.5, 50 mM imidazole) by 4 column volume. Finally, protein was eluted with eluant (50 mM PBS pH7.5, 250 mM imidazole); dialyzed for 6 h with dialysis solution (50 mM PBS pH7.5), concentrated, sub-packaged, quickly frozen with liquid nitrogen and stored at −80° C. for backup.
(2) Test Method for IDO Enzyme Inhibitory Activity
Firstly, the compound was diluted by triple gradient. 1 μL of each concentration was added into a 96-well plate; 50 μL of IDO Enzyme solution PBS (pH 7.5; final concentration: 50 mM) was added: 25 μL of substrate 1 (methylene blue, final concentration: […]; catalase, final concentration: 0.2 μg/L; PBS (pH 7.5; final concentration: 50 mM) mixture and 25 μL of substrate 2 (D-Trp, final concentration: 1.5 mM; sodium ascorbate, final concentration: 20 mM; PBS (pH 7.5), final concentration 50 mM) mixture were added for starting the reaction. Finally, OOD321 nm reading was carried out for 40 min.

SMILES | IC50 (IDO in Hela cells) [nM] | IC50 (IDO enzyme) [nM]
O=C(Nc1ccc(Cl)cc1)C1CC2(C1)CC(c1ccnc3ccccc13)C2 (racemic) [Example 1, (±)-N-(4-chlorophenyl)-6-(quinolin-4-yl)spiro[3.3]heptane-2-carboxamide] | > 50 | 1100
O=C(Nc1ccc(Cl)cc1)C1CC12CCC(c1ccnc3ccccc13)CC2 (racemic) [Example 2A, (±)-(cis/trans)-N-(4-chlorophenyl)-6-(quinolin-4-yl)spiro[2.5]octane-1-carboxamide] | > 50 | 1300
O=C(Nc1ccc(Cl)cc1)C1CC2(C1)CC(c1ccnc3ccc(F)cc13)C2 (racemic) [Example 3, (±) N-(4-chlorophenyl)-6-(6-fluoroquinolin-4-yl)spiro[3.3]heptane-2-carboxamide] | > 3 | 630
O=C(Nc1ccc(Cl)cc1)C1CC12CCC(c1ccnc3ccc(F)cc13)CC2 (racemic) [Example 4, (±)-(cis/trans)-N-(4-chlorophenyl)-6-(6-fluoroquinolin-4-yl)spiro[2.5]octane-1-carboxamide] | 22 | 160
O=C(Nc1ccc(F)cc1)C1CC12CCC(c1ccnc3ccc(F)cc13)CC2 (racemic) [Example 5, (±)-(cis/trans)-N-(4-fluorophenyl)-6-(6-fluoroquinolin-4-yl)spiro[2.5]octane-1-carboxamide] | > 3 | 330
O=C(Nc1ccc(C(F)(F)F)cc1)C1CC12CCC(c1ccnc3ccc(F)cc13)CC2 (racemic) [Example 6, (±)-(cis/trans)-6-(6-fluoroquinolin-4-yl)-N-(4-trifluoromethyl)phenyl)spiro[2.5]octane-1-carboxamide] | > 4 | 470
O=C(Nc1ccccc1)C1CC12CCC(c1ccnc3ccc(F)cc13)CC2 (racemic) [Example 7, (±)-(cis/trans)-6-(6-fluoroquinolin-4-yl)-N-phenylspiro[2.5]octane-1-carboxamide] |  | 990
O=C(NC1CC12CCC(c1ccnc3ccc(F)cc13)CC2)c1ccc(Cl)cc1 (racemic) [Example 8, (±)-(cis/trans)-4-chloro-N-(6-(6-fluoroquinolin-4-yl)spiro[2.5]octan-1-yl)benzamide] | > 30 | 990
O=C(Nc1ccc(Cl)cc1)NC1CC12CCC(c1ccnc3ccc(F)cc13)CC2 (racemic) [Example 9, (±)-(cis/trans)-1-(4-chlorophenyl)-3-(6-(6-fluoroquinolin-4-yl)spiro[2.5]octan-1-yl)urea] |  | 3000
O=C(Nc1ccc(Cl)cc1)NC1CCC12CCC(c1ccnc3ccc(F)cc13)CC2 (racemic) [Example 11A, (±) 1-(4-chlorophenyl)-3-(7-(6-fluoroquinolin-4-yl)spiro[3.5]nonan-1-yl)urea] |  | 6900
O=C(Nc1ccc(Cl)cc1)NC1CCC12CCC(c1ccnc3ccc(F)cc13)CC2 (racemic) [Example 11B, (±) 1-(4-chlorophenyl)-3-(7-(6-fluoroquinolin-4-yl)spiro[3.5]nonan-1-yl)urea] |  | 2700
O=C(NC1CCC12CCC(c1ccnc3ccc(F)cc13)CC2)c1ccc(Cl)cc1 (racemic) [Example 12A, (±) 4-chloro-N-(7-(6-fluoroquinolin-4-yl)spiro[35]nonan-1-yl)benzamide] |  | 1200
O=C(NC1CCC12CCC(c1ccnc3ccc(F)cc13)CC2)c1ccc(Cl)cc1 (racemic) [Example 12B, (±) 4-chloro-N-(7-(6-fluoroquinolin-4-yl)spiro[3.5]nonan-1-yl)benzamide] | > 30 | 1180
O=C(Nc1cccc(Br)c1)C1CCC12CCC(c1ccnc3ccc(F)cc13)CC2 (racemic) [Example 14A, (±)-N-(3-bromophenyl)-7-(6-fluoroquinolin-4-yl)spiro[3.5]nonane-1-carboxamide] |  | 7600
O=C(Nc1cccc(Br)c1)C1CCC12CCC(c1ccnc3ccc(F)cc13)CC2 (racemic) [Example 14B, (±)-N-(3-bromophenyl)-7-(6-fluoroquinolin-4-yl)spiro[3.5]nonane-1-carboxamide] |  | 7000
O=C(Nc1ccc(Cl)cc1)NC1CC2(CCC(c3ccnc4ccc(F)cc34)CC2)C1 (racemic) [Example 16, (±) 1-(4-chlorophenyl)-3-(7-(6-fluoroquinolin-4-yl)spiro[3.5]nonan-2-yl)urea] |  | 3200
O=C(NC1CC2(CCC(c3ccnc4ccc(F)cc34)CC2)C1)c1ccc(Cl)cc1 (racemic) [Example 17, (±) 4-chloro-N-(7-(6-fluoroquinolin-yl)spiro[3.5]nonan-2-yl)benzamide] |  | 480
O=C(Nc1ccc(Br)cc1)C1CC2(CCC(c3ccnc4ccc(F)cc34)CC2)C1 (racemic) [Example 18, (±) N-(4-bromophenyl)-7-(6-fluoroquinoline-4-yl)spiro[3.5]nonane-2-carboxamide] | 2.52 | 200
O=C(Nc1ccc(F)cc1)C1CC2(CCC(c3ccnc4ccc(F)cc34)CC2)C1 (racemic) [Example 19, (±) N-(4-fluorophenyl)-7-(6-fluoroquinolin-4-yl)spiro[3.5]nonane-2-carboxamide] | 3.36 | 400
O=C(NC1CC2(CCC(c3ccnc4ccc(F)cc34)CC2)C1)c1ccc(Br)cc1 (racemic) [Example 20, (±) 4-bromo-N-(7-(6-fluoroquinolin-4-yl)spiro[3.5]nonan-2-yl)benzamide] | > 10 | 2420
O=C(NC1CC2(CCC(c3ccnc4ccc(F)cc34)CC2)C1)c1ccc(F)cc1 (racemic) [Example 21, (±) 4-fluoro-N-(7-(6-fluoroquinolin-4-yl)spiro[3.5]nonan-2-yl)benzamide] | > 10 | 480
O=C(Nc1ccc(Cl)cc1)C1CCC12CCC(c1ccnc3ccc(F)cc13)CC2 (single isomer, unassigned) [Example 10A, (±) N-(4-chlorophenyl)-7-(6-fluoroquinolin-4-yl)spiro[3.5]nonane-1-carboxamide] | > 3 | 520
O=C(Nc1ccc(Cl)cc1)C1CCC12CCC(c1ccnc3ccc(F)cc13)CC2 (single isomer, unassigned) [Example 10B, (±) N-(4-chlorophenyl)-7-(6-fluoroquinolin-4-yl)spiro[3.5]nonane-1-carboxamide] |  | 2100
O=S(=O)(NC1CCC12CCC(c1ccnc3ccc(F)cc13)CC2)c1ccc(Cl)cc1 (single isomer, unassigned) [Example 13A, (±) 4-chloro-N-(7-(6-fluoroquinolin-4-yl)spiro[3.5]nonan-1-yl)benzenesulfonamide] |  | 20000
O=S(=O)(NC1CCC12CCC(c1ccnc3ccc(F)cc13)CC2)c1ccc(Cl)cc1 (single isomer, unassigned) [Example 13B, (±) 4-chloro-N-(7-(6-fluoroquinolin-4-ylspiro[3.5]nonan-1-yl)benzenesulfonamide] |  | 157000
O=C(Nc1ccc(Cl)cc1)C1CC2(CCC(c3ccnc4ccc(F)cc34)CC2)C1 (single isomer, unassigned) [Example 15A, N-(4-chlorophenyl)-7-(6-fluoroquinolin-4-yl)spiro[3.5]nonane-2-carboxamide] | > 10 | 3660
O=C(Nc1ccc(Cl)cc1)C1CCC2(CC1)CC(c1ccnc3ccc(F)cc13)C2 (single isomer, unassigned) [Example 22A, N-(4-chlorophenyl)-2-(6-fluoroquinoline-4-yl)spiro[3.5]nonane-7-carboxamide] |  | 4160
O=C(Nc1ccc(Cl)cc1)C1CCC2(CC1)CC(c1ccnc3ccc(F)cc13)C2 (single isomer, unassigned) [Example 22B, N-(4-chlorophenyl)-2-(6-fluoroquinoline-4-yl)spiro[3.5]nonane-7-carboxamide] |  | 3440
